Data reported in US12037324B2, “Biarylmethyl heterocycles” (Université de Montréal, priority 2016, dated 2024).

What was measured:
[1] = target: T1, hAT1R (Homo sapiens, UniProt P30556); assay: cell-based; details: section of the 42nd table ending at r951, example numbering restarts after the DiscoveRx section; read-out: β-arrestin2 EC50
T1 sequence (P30556 1-359): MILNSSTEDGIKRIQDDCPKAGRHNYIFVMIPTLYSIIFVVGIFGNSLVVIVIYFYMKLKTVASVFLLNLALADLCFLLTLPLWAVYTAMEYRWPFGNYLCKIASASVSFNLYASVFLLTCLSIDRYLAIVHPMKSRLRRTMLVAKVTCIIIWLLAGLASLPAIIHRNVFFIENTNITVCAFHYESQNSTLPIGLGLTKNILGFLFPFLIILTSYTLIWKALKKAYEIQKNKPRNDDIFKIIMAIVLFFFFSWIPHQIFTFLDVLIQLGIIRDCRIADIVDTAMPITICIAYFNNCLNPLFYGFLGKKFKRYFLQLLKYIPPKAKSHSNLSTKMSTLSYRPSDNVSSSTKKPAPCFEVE

[2] = target: T1, hAT1R; assay: cell-based; details: agonist mode; for EC50: read-out: BRET P63 EC50
[3] = target: T2, AGTR1 (Homo sapiens, UniProt P30556); assay: DiscoveRx β-arrestin2 recruitment assay (enzyme complementation, Pathunter CHO-K1 AGTR1 β-arrestin cell line); type: cell-based; details: DiscoveRx β-arrestin2 recruitment
T2 construct: host or cells: Pathunter CHO-K1 AGTR1 β-arrestin cell line (CHO-K1)
T2 sequence (P30556 1-359): T1 sequence (P30556 1-359)
How it was run: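 CHO-K1 cells expressing AGTR1 with β-arrestin2 enzyme-complementation reporter, plated 14-16 h ahead in 1% serum medium, then exposed to compounds for 90 min at 37° C. Chemiluminescence read after 1 h detection. EC50 (agonist) or IC50 (antagonist) from 4-parameter logistic fit; activity as percentage of All maximal effect.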

[4] = target: T1, hAT1R; assay: BRET Gq biosensor assay, agonist response, HEK293 cells; type: cell-based; details: section of the 42nd table directly before the BRET P63 section
How it was run: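 HEK293 cells co-transfected with signal-peptide-optimized hAT1R plus Gαq-Rluc, Gβ1 and GFP-Gγ1, assayed 48 h later in Tyrode's buffer pH 7.4. Coelenterazine (2 μM final) added, then compound; BRET2 (515/410 nm) read after 5 min at room temperature. EC50 by 4-parameter fit, normalized to unstimulated (0%) and maximal AngII (100%).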

[5] = target: T1, hAT1R; assay: BRET β-arrestin2 biosensor assay, higher receptor expression (hAT1R 5 ng/well), HEK293 cells; type: cell-based; details: for EC50: High AT1R Expression

Structure (SMILES) | EC50 [1] | BRET P63 Ymax [2] | EC50 [2] | EC50 [3] | DiscoveRx β-arrestin2 Ymax (%) ([3]; maximal response) | EC50 [4] | BRET β-Arrestin2 High AT1R Expression Ymax (%) [5] | EC50 [5] | DiscoveRx β-arrestin2 Ymax (%) [3]
CCOc1nc2cccc(C(=O)O)c2n1Cc1ccc(-c2cc(-c3ccccc3)ccc2-c2noc(=O)[nH]2)cc1 [Example 311, 2-ethoxy-1-((6′-(5-oxo-4,5-dihydro-1,2,4-oxadiazol-3-yl)-[1,1′:3′,1″-terphenyl]-4-yl)methyl)-1H-benzo[d]imidazole-7-carboxylic acid] | 4.2 nM | 13.2% | 3.6 nM | 3.9 nM | 77.6% | 18.1 nM | 92.0% | 1.5 nM | 
CCOc1nc2cccc(C(=O)O)c2n1Cc1ccc(-c2cc(-c3ccccc3)ccc2-c2nn[nH]n2)cc1 [Example 312, 1-((6′-(2H-tetrazol-5-yl)-[1,1′:3′,1″-terphenyl]-4-yl)methyl)-2-ethoxy-1H-benzo[d]imidazole-7-carboxylic acid] | 5.8 nM | 9.4% | 17.2 nM | 22.5 nM | 79.9% | 20.7 nM | 91.8% | 2.6 nM | 
CCOc1nc2cccc(C(=O)O)c2n1Cc1ccc(-c2cc(-c3cccc(C)c3)ccc2C(=O)O)cc1 [Example 313, 1-((6′-carboxy-3″-methyl-[1,1′:3′,1″-terphenyl]-4-yl)methyl)-2-ethoxy-1H-benzo[d]imidazole-7-carboxylic acid] | 21.5 nM | 6.3% | 46.7 nM | 28.1 nM | 46.1% | 82.1 nM | 92.9% | 7.7 nM | 
CCOc1nc2cccc(C(=O)O)c2n1Cc1ccc(-c2cc(-c3ccccc3)ccc2C(=O)O)cc1 [Example 314, 1-((6′-carboxy-[1,1′:3′,1″-terphenyl]-4-yl)methyl)-2-ethoxy-1H-benzo[d]imidazole-7-carboxylic acid] | 36.6 nM | 12.8% | 67.8 nM | 3.5 nM | 66.8% | 129 nM | 90.3% | 5.8 nM | 
CCOc1nc2cccc(C(=O)O)c2n1Cc1ccc(-c2cc(-c3c[nH]c4ccccc34)ccc2-c2noc(=O)[nH]2)cc1 [Example 322] | 9.7 nM | 5.1% | 53.7 nM | 39.2 nM | 33.7% | 93.3 nM | 80.9% | 8.4 nM | 
CCCCc1ncc(C(=O)NCc2cnn(C)c2)n1Cc1ccc(-c2cc(-c3ccccc3)ccc2-c2nn[nH]n2)cc1 [Example 346] | 11.1 nM | 6.0% | 19.3 nM | 13 nM | 44.5% | 67.1 nM | 92.1% | 7.1 nM | 
CCCCc1nc(Cl)c(C(=O)O)n1Cc1ccc(-c2cc(-c3ccccc3)ccc2-c2nn[nH]n2)cc1 [Example 384, 1-((6′-(2H-tetrazol-5-yl)-[1,1′:3′,1″-terphenyl]-4-yl)methyl)-2-butyl-4-chloro-1H-imidazole-5-carboxylic acid] | 10.8 nM |  | > 10000 nM | 8 nM | 49.3% | 39.1 nM | 83.8% | 6.9 nM | 
CCCCc1nc(Cl)c(C(=O)O)n1Cc1ccc(-c2cc(-c3cn(C(C)C)nc3C(F)(F)F)ccc2-c2nn[nH]n2)cc1 [Example 388] | 26.7 nM | 30.4% | 39.8 nM | 44.7 nM | 71.7% | 810 nM | 96.2% | 4.6 nM | 
CCCCc1nc(Cl)c(C(=O)O)n1Cc1ccc(-c2cc(-c3ccc(C(=O)N(C)C)cc3)ccc2-c2nn[nH]n2)cc1 [Example 390] | 97 nM | 11.9% | 127 nM | 11.8 nM | 53.5% | 23.7 nM | 95.3% | 24.4 nM | 
CCCCc1nc(Cl)c(C(=O)O)n1Cc1ccc(-c2cc(-c3c[nH]c4ccccc34)ccc2-c2nn[nH]n2)cc1 [Example 391] | 11 nM |  | > 100000 nM | 45.8 nM | 23.3% | 181 nM | 78.3% | 11.7 nM | 
CCCc1nc(CC)c(C(=O)O)n1Cc1ccc(-c2cc(-c3ccccc3)ccc2-c2nn[nH]n2)cc1 [Example 396, 1-((6′-(2H-tetrazol-5-yl)-[1,1′:3′,1″-terphenyl]-4-yl)methyl)-4-ethyl-2-propyl-1H-imidazole-5-carboxylic acid] | 14.1 nM |  | > 100000 nM | 5 nM | 57.8% | 274 nM | 88.8% | 6.4 nM | 
CCCCc1nc(Cl)c(C(=O)O)n1Cc1ccc(-c2cc(-c3ccccc3)ccc2-c2noc(=O)[nH]2)cc1 [Example 404, 2-butyl-4-chloro-1-((6′-(5-oxo-4,5-dihydro-1,2,4-oxadiazol-3-yl)-[1,1′:3′,1″-terphenyl]-4-yl)methyl)-1H-imidazole-5-carboxylic acid] | 69.4 nM |  | > 10000 nM | 9.6 nM | 38.6% | 70.4 nM | 89.7% | 14.3 nM | 
CCCCc1nc(Cl)c(C(=O)O)n1Cc1ccc(-c2cc(-c3ccccc3)ccc2C(=O)O)cc1 [Example 410, 2-butyl-1-((6′-carboxy-[1,1′:3′,1″-terphenyl]-4-yl)methyl)-4-chloro-1H-imidazole-5-carboxylic acid] | 98.2 nM |  | > 10000 nM | 26.9 nM | 41.9% | > 100000 nM | 69.7% | 82.1 nM | 
CCCCc1nc(Cl)c(C(=O)O)n1Cc1ccc(-c2cc(C3CCCCC3)ccc2-c2nn[nH]n2)cc1 [Example 424, 2-butyl-4-chloro-1-((5′-cyclohexyl-2′-(2H-tetrazol-5-yl)-[1,1′-biphenyl]-4-yl)methyl)-1H-imidazole-5-carboxylic acid] | 35.3 nM |  | > 100000 nM | 99.3 nM | 28.6% | 2790 nM | 76.7% | 67.8 nM | 
CCCCC(=O)N(Cc1ccc(-c2cc(-c3cc(C)ccn3)ccc2-c2nn[nH]n2)cc1)[C@H](C(=O)O)C(C)C [Example 445] | 36 nM | 24.0% | 103 nM | 37.7 nM |  | 140 nM | 91.3% | 9.8 nM | 61.2%
